Test results taken from patent US7169568B2, “Method for screening molecules that exert a neurotrophic effect through activation of neurotrophin receptors” (New York University, priority 2000, dated 2007).

Tests used:
[1] = system: TrkA receptors; test: TrkA receptor tyrosine phosphorylation in PC12 (615) cells (anti-pan-Trk immunoprecipitation, PY99 anti-phosphotyrosine immunoblot); type: cell-based
Procedure: Stably transfected PC12 cells expressing high levels of TrkA (615) were treated with the indicated compounds for 2 hours. The cells were subsequently harvested in lysis buffer as described in the Materials and Methods of Example 1. Lysates were immunoprecipitated with anti-pan Trk rabbit antiserum. Immunocomplexes were analyzed by immunoblotting with anti-phosphotyrosine antibody (PY99).
In FIG. 2A, different concentrations of adenosine were administered to PC12615 cells for 2 hours or NGF (1 ng/ ml) for 10 min. Cells were also treated with CGS21680 at the indicated dose for 2 hours. In FIG. 2B, PC12 cells (615) were treated with adenosine (10 μM) for various times or with 5 ng/ml NGF for 10 min. Phosphorylated TrkA receptors were detected by immunoblot analysis using PY99 anti-phosphotyrosine antibodies. The amount of Trk receptors in each condition was verified by immunoblotting.
In FIG. 3A, PC12 cells (615) were treated with the A2A agonist CGS 21680 (10 nM) and an A1 agonist CPA (10 nM) for 2 hr. ZM 241385 (10 nM), an A2A antagonist, was incubated with the cells for 15 min prior to treatment with adenosine (10 μM) for 2 hours. In FIG. 3B, PC12 cells (615) were incubated with the indicated concentrations of PP1, a Src family kinase inhibitor (Hanke et al, 1996), for 30 min, and then treated with adenosine (10 μM) for 2 hours. Activation of TrkA was assessed by immunoprecipitation and immunoblot analysis using PY99 anti-phosphotyrosine antibody.
In FIG. 7A, different concentrations of PACAP27 were administered to PC12 (615) cells for 2 hours or NGF (5 ng/ml) for 10 min. […] Phosphorylated TrkA receptors were detected by immunoblot analysis using PY99 anti-phosphotyrosine antibodies. The level of Trk receptors for each condition was verified by immunoblotting with anti-Trk antibodies.
(§1) Immunoprotection and Immunoblotting. PC12 cells or PC12-615 cells (Hempstead et al, 1992), were maintained in Dulbecco's Modified Eagle's Medium (DMEM) containing 10% fetal bovine serum (FBS) supplemented with 100 units/ml penicillin, 100 μg/ml streptomycin, and 2 mM glutamine plus 200 μg/ml G418. Cells were placed in low serum medium (1% FBS, 0.5% horse serum) overnight prior to experiments. Cell lysates from PC12, 615 cells, or hippocampal cells were incubated in lysis buffer (1% NP40) for 4 hours to overnight at 4° C. with anti-pan-Trk polyclonal antibody, followed by incubation with protein A-Sepharose beads. Equivalent amounts of protein were analyzed for each condition. The beads' were washed five times with lysis buffer and the immune complexes were boiled in SDS-sample buffer and loaded on sodium dodecyl sulfate-polyacrylamide electrophoresis (SDS-PAGE) gels for immunoblot analysis. The immunoreactive protein bands were detected by ECL reagents based upon enhanced chemiluminescence procedure (Amersham Pharmacia).
Immunoprecipitated and Immunoblotting. PC12 (615) cells were maintained in DMEM containing 10% FBS supplemented with 100 units/ml penicillin, 100 μg/ml streptomycin, and 2 mM glutamine plus 200 μg/ml G418. Cells were placed in serum free medium overnight before experiments. Cell lysates from PC12(615) cells, or basal forebrain cells were incubated in lysis buffer (1% Nonidet P-40) for 4 hrs to overnight at 4° C. with anti-pan-Trk polyclonal antibody followed by incubation with protein A-Sepharose beads. Equivalent amounts of protein were analyzed for each condition.

[2] = system: TrkB receptors; test: Trk receptor phosphorylation in primary E17 hippocampal neurons (immunoprecipitation, anti-phosphotyrosine Western blot); type: cell-based, rat; settings: 10 nM, two hours
Procedure: FIGS. 4A and 4B show Western blots on adenosine activation of Trk receptors in hippocampal neurons. Primary cultures of E17 hippocampal neurons were prepared as described in the Materials and Methods of Example 1 and treated with (FIG. 4A) CGS 21680 (10 nM) or BDNF (1 ng/ml) for various times and (FIG. 4B) either adenosine (10 μM), CGS 21680 (10 nM), CPA (10 nM) or BDNF (10 ng/ml) for 2 hr. Activation of TrkA receptors was assessed by immunoprecipitation and Western blotting with anti-phosphotyrosine antibody.
as §1
Hippocampal Cell Cultures. Dissociated primary cultures of hippocampal neurons from embryonic day 17 (E17) rats were prepared from timed-pregnant Sprague-Dawley rats as described previously (Aibel et al, 1998). Fetuses were removed under sterile conditions and kept in PBS on ice for microscopic dissection of the hippocampus. The meninges were removed and the tissue was placed in Neurobasal media (Gibco BRL). […] Cells were counted and then plated on culture wells coated with 0.01 mg/ml poly-D-lysine overnight. […]

[3] = system: hippocampal neurons; test: Cell death assay (LDH release), hippocampal neurons after B27 withdrawal; type: cell-based, rat; settings: 100 nM, with CGS 21680 (10 nM) upon B27 withdrawal
Procedure: (§2) . In FIG. 6A, NGF-differentiated PC12 cells were prepared and then NGF and serum were withdrawn for 48 hours as described in the Materials and Methods section of Example 1. Upon NGF withdrawal, various concentrations of CGS 21680 (CGS) were added to the media. CON =No Addition. […] In FIG. 6B, hippocampal neurons were prepared and B27 was withdrawn for 48 hrs as described in the Materials and Methods section of Example 1. Upon B27 withdrawal, various concentrations of CGS 21680 (CGS) were added to the media. […] All LDH levels were quantitated and % cell death calculated as described in the Materials and Methods section of Example 1. All bars depict mean+SEM from three independent experiments.
Hippocampal Cell Cultures. Dissociated primary cultures of hippocampal neurons from embryonic day 17 (E17) rats were prepared from timed-pregnant Sprague-Dawley rats as described previously (Aibel et al, 1998). Fetuses were removed under sterile conditions and kept in PBS on ice for microscopic dissection of the hippocampus. The meninges were removed and the tissue was placed in Neurobasal media (Gibco BRL). The tissue was briefly minced with fine forceps and then triturated with a fire polished pasteur pipet. Cells were counted and then plated on culture wells coated with 0.01 mg/ml poly-D-lysine overnight. Hippocampal cells were maintained in Neurobasal media, containing B27 supplement and L-glutamine (0.5 mM). Experiments were conducted 7–10 days after plating.
Hippocampal neurons were maintained in Neurobasal media containing B27 supplement and 0.5 mM L-glutamine for 10 days. B27 was then removed, and adenosine agonists or BDNF (100 ng/ml) was added to the media. MK-801 (1 μM) was added to all conditions, to decrease the contribution of NMDA-mediated cell death. After 48 hrs, cell death was assessed by measurement of LDH released into media.

[4] = system: MAP kinase; test: MAP kinase activation in PC12 cells (anti-phospho MAP kinase immunoblot); type: cell-based; settings: K252a at concentrations that block TrkA signaling (100 nM)
Procedure: as §1, with “PC12 cells (615) were treated with adenosine (10 μM) for various times in the presence or absence of […] (100 nM) or LY294002 (10 μM). The cells were subsequently harvested in lysis buffer; lysates and immunoprecipitated samples were subsequently immunoblotted with anti-phospho MAP kinase, anti-phospho Akt, and anti-phosphotyrosine. Reprobing with anti-MAP kinase and anti-pan-Trk antibodies was carried out to ensure equal protein loading. Immunoprotection” for “Immunoprotection”, “The beads' were washed five times with lysis buffer and the immune complexes were boiled in SDS-sample buffer and loaded on sodium dodecyl sulfate-polyacrylamide electrophoresis (SDS-PAGE) gels for immunoblot analysis.” left out

[5] = system: NGF-differentiated PC12 cells; test: Cell death assay (LDH release), NGF-differentiated PC12 cells after NGF and serum withdrawal; type: cell-based
Procedure: as §2, with “FIGS. 6A and 6B show graphs on the trophic effects of adenosine in PC12 and hippocampal cells deprived of neurotrophins. In” for “. In”
Cell Death Assay. PC12 cells were differentiated in Dulbecco's modified Eagle's medium (DMEM), supplemented with 0.33% fetal bovine serum, 0.67% heat-inactivated horse serum, 2 mM L-glutamine and NGF (50 ng/ml) for 7 days. Serum and NGF were then removed, and adenosine agonists or growth factors added to the media. After 48 hrs, cell death was quantified by measuring lactate dehydrogenase (LDH) released from injured cells into the media using the Cytox 96 Cytotoxicity Assay Kit (Promega, Madison, Wis.). LDH values were normalized by subtracting the LDH released by cells maintained in NGF (50 ng/ml) and scaling to a full kill (=100%) reference induced by 5 min treatment with 1% Triton, an exposure that consistently killed all PC12 cells.

[6] = system: Akt; test: Akt activation in PC12 cells (anti-phospho Akt immunoblot); type: cell-based
Procedure: as §1, with “PC12 cells (615) were treated with adenosine (10 μM) for various times in the presence or absence of […] (100 nM) or LY294002 (10 μM). The cells were subsequently harvested in lysis buffer; lysates and immunoprecipitated samples were subsequently immunoblotted with anti-phospho MAP kinase, anti-phospho Akt, and anti-phosphotyrosine. Reprobing with anti-MAP kinase and anti-pan-Trk antibodies was carried out to ensure equal protein loading. To assess the activity of Akt, endogenous Akt can be immunoprecipitated from lysates with anti-Akt and the proteins assayed in Western blots with anti-phospho-Akt antibodies. Use of the anti-Akt antibody versus the anti-phospho-Akt antibody on lysates can give a comparative assessment of the relative level of the enzyme and extent of activation (Kim et al., 2001). […]” for “Immunoprotection”

Compound: OC[C@H]1O[C@@H](n2cnc3c(NC4CCCC4)ncnc32)[C@H](O)[C@@H]1O [CPA, N(6)-cyclopentyladenosine]
- Increase in phosphorylated TrkA receptors ([1]; PC12 (615) cells, 10 nM, 2 hr): no effect
- Phosphorylation of TrkB receptors [2]: did not activate TrkB receptors

Compound: COC(=O)[C@@]1(O)C[C@H]2O[C@]1(C)n1c3ccccc3c3c4c(c5c6ccccc6n2c5c31)C(=O)NC4 [K252a]
- Effect on survival action of CGS 21680 [3]: K-252a sensitive
- Effect on MAP kinase activity induced by adenosine [4]: not altered
- Effect on survival effect of CGS 21680 ([5]; 100 nM, with CGS 21680 (10 nM) upon NGF withdrawal): eliminated the positive effects of CGS 21680
- Effect on survival effects of NGF ([5]; 100 nM, with NGF (50 ng/ml)): reversed the survival effects of NGF
- Effect on Akt activation by adenosine ([6]; pretreatment 100 nM): eliminated

Compound: COc1cccc(-c2cc(=O)c3ccccc3o2)c1N [PD98059]
- Effect on survival imparted by CGS 21680 ([5]; 25 μM, with CGS 21680 (10 nM)): not found to have any effect

Compound: Cc1ccc(-c2nn(C(C)(C)C)c3ncnc(N)c23)cc1 [PP1]
- Effect on level of tyrosine phosphorylated TrkA receptors elicited by adenosine ([1]; 1 μM, 30 min, then adenosine (10 μM) for 2 hours): marked decrease
- Effect on tyrosine phosphorylated TrkA receptors elicited by adenosine, concentration dependence ([1]; increasing concentrations, then adenosine (10 μM) for 2 hours): progressively stronger inhibition

Compound: Nc1nc(NCCc2ccc(O)cc2)nc2nc(-c3ccco3)nn12 [ZM 241385, 4-[2-[7-amino-2-(2-furyl)-1,2,4-triazolo[1,5-a](1,3,5)triazin-5-ylamino]ethyl]phenol]
- Effect on adenosine-induced phosphorylation of TrkA receptors ([1]; 10 nM, 15 min prior to adenosine (10 μM) for 2 hours): antagonized the effects of adenosine

Compound: CN1CCc2cccc3c2[C@H]1Cc1ccc(O)c(O)c1-3 [apomorphine]
- Activation of TrkA receptors (tyrosine phosphorylation) ([1]; PC12 (615) cells, ligand for 2 hours, adenosine 10 μM): not observed

Compound: Pituitary adenylate cyclase activating polypeptide [PACAP]
- Concentration range of the effect upon TrkA receptor activity ([1]; PC12 (615) cells, 2 hours): low nanomolar concentration range
- Time required for increase in TrkA activation ([1]; PC12 (615) cells, PACAP27 1 nM): 2 h
- Akt activity ([6]; PC12 cells, PACAP treatment): stimulated
